Experiments:
Type in all cases: cell-based
[1] = molecular target: T1, ASIC1a (Homo sapiens, UniProt P78348); test: Calcium imaging of MES-induced calcium response (FLIPR); parameters: host or cells: HEK293; conditions: ASIC1a expressing HEK293 cells, MES-induced calcium response; read-out: IC50 (FLIPR)
T1 sequence (P78348 1-528): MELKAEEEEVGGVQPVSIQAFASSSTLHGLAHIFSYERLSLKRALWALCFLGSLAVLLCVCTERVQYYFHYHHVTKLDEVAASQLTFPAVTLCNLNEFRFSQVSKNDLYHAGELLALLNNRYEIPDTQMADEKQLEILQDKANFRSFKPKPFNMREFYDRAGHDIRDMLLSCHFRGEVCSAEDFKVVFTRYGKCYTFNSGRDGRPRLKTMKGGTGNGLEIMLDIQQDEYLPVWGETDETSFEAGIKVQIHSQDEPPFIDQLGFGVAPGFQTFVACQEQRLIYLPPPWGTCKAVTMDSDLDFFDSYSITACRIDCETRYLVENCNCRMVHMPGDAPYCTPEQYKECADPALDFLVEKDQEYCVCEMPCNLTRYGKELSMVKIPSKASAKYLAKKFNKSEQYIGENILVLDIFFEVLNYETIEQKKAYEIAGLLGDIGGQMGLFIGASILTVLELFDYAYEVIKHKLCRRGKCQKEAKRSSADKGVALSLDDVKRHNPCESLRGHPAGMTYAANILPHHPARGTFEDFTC

[2] = molecular target: T1, ASIC1a; test: Two-electrode voltage clamp in Xenopus laevis oocytes (Xo), acid-induced currents; parameters: expressed in transfected cells; host or cells: Xenopus laevis oocytes (nuclear microinjection of expression vector such as pcDNA3); conditions: Xenopus oocytes; for inhibition at 50 µM: read-out: % inh. at 50 μM (Xo); for inhibition at 100 µM: read-out: % inh. at 100 μM (Xo)
Procedure, shortened: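 Defolliculated oocytes were nuclear-injected with channel cDNA and expressed for 2–4 days at 19 °C. Under two-electrode voltage clamp at room temperature, oocytes were superfused with pH 7.4 Ringer, and currents were evoked by switching to acidic MES Ringer (pH<7). Compound was present in both control and acidic solutions.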

[3] = molecular target: T1, ASIC1a; test: Calcium imaging of MES-induced calcium response (FlexStation, "Flex"); parameters: host or cells: HEK293; conditions: ASIC1a expressing HEK293 cells; for inhibition at 40 µM: read-out: % inh. at 40 μM (Flex)
Procedure: ASIC1a expressing HEK293 cells are grown in culture medium (DMEM with 10% FBS), in polystyrene culture flasks ([…]) at 37° C. in a humidified atmosphere of 5% CO2. Confluency of cells should be 80-90% on day of plating. Cells are rinsed with 10 ml of PBS and cells are re-suspended by addition of culture medium and trituration with a 25 ml pipette.
The cells are seeded at a density of approximately 1×10^6 cells/ml (100 μl/well) in black-walled, clear bottom, 96-well plates pre-treated with 10 mg/l poly-D-lysin (75 μl/well for ≧30 min). Plated cells are allowed to proliferate for 24 h before loading with dye.
Fluo-4/AM (1 mg, Molecular Probes) is dissolved in 912 μl DMSO. The Fluo-4/AM stock solution (1 mM) is diluted with culture medium to a final concentration of 2 μM (loading solution).
The culture medium is aspirated from the wells, and 50 μl of the Fluo-4/AM loading solution is added to each well. The cells are incubated at 37° C. for 30 min.
After the loading period, the loading solution is aspirated and the cells are washed twice with 100 μl modified Assay Buffer (145 mM NaCl, 5 mM KCl, 5 mM CaCl2, 1 mM MgCl2, 10 mM HEPES, pH 7.4) to remove extracellular dye. Following the second wash, 100 μl modified Assay Buffer is added to each well and the fluorescence is measured in FLIPR™ or FlexStation™ (Molecular Devices, USA), or any other suitable equipment known to the skilled in the art.
The MES-induced peak calcium response, in the presence of test substance, is expressed relatively to the MES response alone. Test substances that block the MES-induced calcium response are re-tested in triplicates. Confirmed hits are picked for further characterization by performing full dose-response curves to determine potency of each hit compound as represented by the IC50 values (i.e., the concentration of the test substance which inhibits 50% of the MES-induced calcium response).

| Compound | IC50 [1] [µM] | inhibition at 50 µM [2] [%] | further results |
| --- | --- | --- | --- |
| CCOC(=O)CN(C(C)=O)c1ccc(-c2ccccc2)c2c1CN(C(=O)OCC)CC2 [Compound 139] | 50 to 70 | < 25 |  |
| CCOC(=O)CNc1ccc(-c2ccccc2)c2c1CN(C(=O)OCC)CC2 [Compound 140] | > 70 | < 25 |  |
| CN1CCc2c(-c3ccccc3)cc(C(=O)O)c(N)c2C1 [Compound 141] | > 70 | < 25 |  |
| COC(=O)c1cc(-c2ccccc2)c2c(c1N)CN(C)CC2 [Compound 142] | > 70 | < 25 |  |
| CN1CCc2c(-c3ccccc3)ccc(NCCO)c2C1 [Compound 143] | > 70 | < 25 |  |
| CC(=O)Nc1c(C(=O)O)cc(-c2ccccc2)c2c1CN(C)CC2 [Compound 144] | > 70 | < 25 |  |
| CCOC(=O)N1CCc2c(-c3ccccc3)cc(C(=O)CCl)c(N)c2C1 [Compound 149] | > 70 | < 25 |  |
| CN1CCc2c(-c3ccccc3)ccc(Nc3ncccc3C(=O)O)c2C1 [Compound 150] | > 70 | < 25 |  |
| CN1CCc2c(-c3ccccc3)ccc(NCCC(=O)O)c2C1 [Compound 151] | > 70 | < 25 |  |
| CN1CCc2c(-c3ccccc3)cc([N+](=O)[O-])c(N)c2C1 [Compound 155] | 40 to 70 | < 25 |  |
| CC(=O)Nc1c(N)cc(-c2ccccc2)c2c1CN(C)CC2 [Compound 156] | > 70 | < 25 |  |
| CCOC(=O)N1CCc2c(Br)ccc([N+](=O)[O-])c2C1 [Compound 157] | > 70 |  | inhibition at 100 µM [2]: > 50% |
| CCOC(=O)N1CCc2c(Br)ccc(NCC(=O)OC)c2C1 [Compound 158] | > 70 | < 25 |  |
| CCOC(=O)N1CCc2c(-c3ccccc3)ccc(N)c2C1 [Compound 159] | > 70 | 20 to 40 |  |
| CCOC(=O)N1CCc2c(Br)ccc(N)c2C1 [Compound 160] | > 70 |  | inhibition at 100 µM [2]: 30 to 50% |
| CCOC(=O)N1CCc2c(-c3ccccc3)ccc([N+](=O)[O-])c2C1 [Compound 161] | > 70 | 20 to 40 |  |
| CCOC(=O)C(=O)Nc1ccc(-c2ccccc2)c2c1CN(C)CC2 [Compound 162] | > 70 | < 25 |  |
| CN1CCc2c(-c3ccccc3)ccc(Br)c2C1 [Compound 172] | 50 to 70 | < 25 |  |
| COC(=O)c1ccc(-c2ccccc2)c2c1CN(C(=O)OC(C)(C)C)CC2 [Compound 177] | > 70 | < 25 |  |

| Compound | IC50 [1] [µM] | inhibition at 50 µM [2] [%] | further results |
| --- | --- | --- | --- |
| CN1CCc2c(-c3ccccc3)ccc(C#N)c2C1 [Compound 178] | > 70 | < 25 |  |
| COC(=O)c1cc(-c2ccccc2)c2c(c1C(=O)OC)CN(C(=O)OC(C)(C)C)CC2 [Compound 179] | > 70 | < 25 |  |
| COC(=O)c1cc(-c2ccccc2)c2c(c1C(=O)OC)CN(C)CC2 [Compound 180] | > 70 | < 25 |  |
| CC(C)(C)OC(=O)N1CCc2c(-c3ccccc3)ccc(C(N)=O)c2C1 [Compound 181] | > 70 | < 25 |  |
| CC(C)(C)OC(=O)N1CCc2c(-c3ccccc3)ccc(C(=O)O)c2C1 [Compound 182] | > 70 | < 25 |  |
| CCN(CC)Cc1cc(-c2cc(F)ccc2OC)cc2c1NC(=O)/C2=N/O [Compound 183, 7-Diethylaminomethyl-5-(5-fluoro-2-methoxy-phenyl)-1H-indole-2,3-dione 3-oxime] |  |  | inhibition at 40 µM ([3]; 40 μM): < 25% |
| COc1ccc(F)cc1-c1ccc(N)c(CO)c1 [Compound 186, (4-Amino-5′-fluoro-2′-methoxy-biphenyl-3-yl)-methanol] |  |  | inhibition at 40 µM ([3]; 40 μM): < 25% |
| COc1ccc(F)cc1-c1ccc2c(c1)COC(=O)N2 [Compound 187, 6-(5-Fluoro-2-methoxy-phenyl)-1,4-dihydro-benzo[d][1,3]oxazin-2-one] |  |  | inhibition at 40 µM ([3]; 40 μM): 25 to 45% |
| CCOC(=O)Nc1ccc(-c2cc(F)ccc2OC)cc1CN(CC)CC [Compound 212] |  |  | inhibition at 40 µM ([3]; 40 μM): < 25% |
| CCN(CC)Cc1cc(-c2cc(F)ccc2OC)cc2c1NC(=O)/C2=N/O [Compound 213] |  |  | % inh. at 40 μM (Flex) ([3]; 40 μM): <25% inhibition at 40 μM (Flex) |
| CCN(CC)Cc1cc(-c2cc(F)ccc2OC)ccc1NC(=O)N1CCOCC1 [Compound 214] |  |  | inhibition at 40 µM ([3]; 40 μM): < 25% |
| CCN(CC)Cc1cc(-c2cc(F)ccc2OC)ccc1NC(=O)N(C)C [Compound 215] |  |  | inhibition at 40 µM ([3]; 40 μM): < 25% |
| CCN1CCc2c(-c3cc(C)cc(C)c3)cc3c(c2C1)NC(=O)/C3=N/O [Compound 216] |  |  | IC50 [3]: < 10 µM |
| CCN1CCc2c(-c3cccc(C)c3C)cc3c(c2C1)NC(=O)/C3=N/O [Compound 217] |  |  | inhibition at 40 µM ([3]; 40 μM): > 50% |
| CCN1CCc2c(-c3cc(C)ccc3C)cc3c(c2C1)NC(=O)/C3=N/O [Compound 218] |  |  | IC50 [3]: < 10 µM |
| CCN1CCc2c(-c3cc(Cl)ccc3OC)cc3c(c2C1)NC(=O)/C3=N/O [Compound 219] |  |  | IC50 [3]: < 10 µM |
| CCN1CCc2c(-c3ccccc3OC)cc3c(c2C1)NC(=O)/C3=N/O [Compound 220] |  |  | IC50 [3]: < 10 µM |
| CCOc1ccccc1-c1cc2c(c3c1CCN(CC)C3)NC(=O)/C2=N/O [Compound 221] |  |  | IC50 [3]: < 10 µM |

— patent publication US20080004272A1, “Compositions and methods for modulating gated ion channels” (PainCeptor Pharma Corporation, priority 2006, published 2008)
